Reference: patent US10980805B2, “Aza-pyridone compounds and uses thereof” (Janssen BioPharma, Inc., priority 2013, dated 2021)
pEC50, pIC50: −log10 of the molar value.

Legend:
[1] = test system: Influenza strain A549_A/WSN/33 (H1N1); experiment: Influenza antiviral assay (neuraminidase fluorescence readout); assay type: cell-based, Influenza virus; settings: Influenza A virus, read-out: % Inhibition (EC50 class, Table 2)
[2] = target: Full length EN PA (influenza PA endonuclease) (Influenza A virus, UniProt P15659); experiment: EN PA FRET inhibition assay; assay type: biochemical; settings: FRET probe, mean of a minimum of two independent experiments, read-out: Potency (IC50 class, Table 3)

| SMILES | pEC50 [1] | pIC50 [2] |
| --- | --- | --- |
| CN1CC(C2c3ccc(F)cc3CCc3c(F)cccc32)n2ncc(=O)c(O)c2C1=O (stereo not shown) [Compound 59-A] | > 4.70 | > 6.60 |
| CN1CC(C2c3cccc(F)c3CCc3c(F)cccc32)n2ncc(=O)c(O)c2C1=O (stereo not shown) [Compound 83] | > 4.70 | > 6.60 |
| CN1C[C@@H]([C@H](c2ccccc2)c2cccc(OC3CC3)c2)n2ncc(=O)c(O)c2C1=O [Compound 105-C] | > 4.70 | 6.00 to 6.60 |
| CC(C)N1CC(=C2c3ccccc3CCc3ccccc32)n2ncc(=O)c(O)c2C1=O [Compound 30] | 4.00 to 4.70 | > 6.60 |
| CC(N1CC(=C(c2ccccc2)c2ccccc2)n2ncc(=O)c(O)c2C1=O)C(F)(F)F (stereo not shown) [Compound 15] |  | ≤ 6.00 |
| CCC#Cc1ccn(C(c2ccccc2)C2CN(C(C)C)C(=O)c3c(O)c(=O)cnn32)n1 (stereo not shown) [Compound 126] | > 4.70 | > 6.60 |
| CN1C[C@@H](C2c3cccc(F)c3CCc3c(F)cccc32)n2ncc(=O)c(O)c2C1=O [Compound 83-B] | 4.00 to 4.70 | 6.00 to 6.60 |
| CCCCN1C[C@H](C(c2cccc(F)c2)c2cccc(F)c2)n2ncc(=O)c(O)c2C1=O [Compound 87-A] | > 4.70 | > 6.60 |
| CCN1CC(C(c2ccccc2)c2cccc(C)c2)n2ncc(=O)c(O)c2C1=O (stereo not shown) [Compound 49] | > 4.70 | > 6.60 |
| CCN1C[C@@H]([C@@H](c2ccccc2)c2cccc(Cl)c2)n2ncc(=O)c(O)c2C1=O [Compound 12-D] |  | 6.00 to 6.60 |
| CC(C)C(=O)Oc1c2n(ncc1=O)[C@@H](C(c1ccccc1)c1ccccc1)CN(C(C)C)C2=O [Compound 69-A] | > 4.70 | > 6.60 |
| CN1CC(C2c3ccccc3CCc3ccccc32)n2ncc(=O)c(O)c2C1=O (stereo not shown) [Compound 7] | > 4.70 | > 6.60 |
| CN1CC(C(c2ccccc2)c2cccc(O)c2)n2ncc(=O)c(O)c2C1=O (stereo not shown) [Compound 64] | > 4.70 | > 6.60 |
| CN1C[C@H](C2c3cc(F)ccc3CCc3ccc(F)cc32)n2ncc(=O)c(O)c2C1=O [Compound 45-A] | > 4.70 | > 6.60 |
| CCN1C[C@H](C(c2cccc(F)c2)c2cccc(F)c2)n2ncc(=O)c(OCOC(=O)Oc3ccc([N+](=O)[O-])cc3C)c2C1=O [Compound 88-A] | > 4.70 | 6.00 to 6.60 |
| CC(C)N1C[C@@H](C(c2ccccc2)c2cccc(Cl)c2)n2ncc(=O)c(O)c2C1=O (single isomer, unassigned) [Compound 73-B] | > 4.70 | 6.00 to 6.60 |
| CCN1C[C@@H]([C@H](c2ccccc2)c2cccc(Cl)c2)n2ncc(=O)c(O)c2C1=O [Compound 12-E] |  | > 6.60 |
| CCN1CC(C(c2ccccc2)c2ccccc2)n2ncc(=O)c(O)c2C1=O (stereo not shown) [Compound 5] | > 4.70 | > 6.60 |
| CN1C[C@H]([C@@H](c2ccccc2)c2ccccn2)n2ncc(=O)c(O)c2C1=O [Compound 128] | > 4.70 | > 6.60 |
| C[C@@H](N1C[C@@H](C2c3ccccc3CCc3ccccc32)n2ncc(=O)c(O)c2C1=O)C(F)(F)F [Compound 33-B] | > 4.70 | > 6.60 |
| COCC(C)(C)N1CC(C(c2ccccc2)c2ccccc2)n2ncc(=O)c(O)c2C1=O (stereo not shown) [Compound 90] | > 4.70 | > 6.60 |
| CC(C)N1CC(C(c2cccc(F)c2)c2cccc(F)c2)n2ncc(=O)c(O)c2C1=O (stereo not shown) [Compound 41] | > 4.70 | > 6.60 |

| SMILES | pEC50 [1] | pIC50 [2] |
| --- | --- | --- |
| CC(C)COC(=O)Oc1c2n(ncc1=O)[C@@H](C(c1ccccc1)c1ccccc1)CN(C(C)C)C2=O [Compound 134] | > 4.70 | ≤ 6.00 |
| CN1CC(C(c2cccc(F)c2)c2cccc(F)c2)n2ncc(=O)c(O)c2C1=O (stereo not shown) [Compound 22] | > 4.70 | > 6.60 |
| CN1C[C@@H](C2c3cc(Cl)ccc3CCc3ccc(Cl)cc32)n2ncc(=O)c(O)c2C1=O [Compound 52-A] | > 4.70 | > 6.60 |
| CN1CC(C(c2ccccc2)c2cccc(CC#N)c2)n2ncc(=O)c(O)c2C1=O (stereo not shown) [Compound 99] | 4.00 to 4.70 | > 6.60 |
| CN1C[C@H](C(c2ccccc2)c2ccccc2)n2ncc(=O)c(O)c2C1=O [Compound 1-A] | > 4.70 | > 6.60 |
| CC(C)N1C[C@H](C2c3ccccc3CCc3ccccc32)n2ncc(=O)c(O)c2C1=O [Compound 17-A] |  | > 6.60 |
| CC(C)N1CC(C(c2ccccc2)c2cccnc2)n2ncc(=O)c(O)c2C1=O (stereo not shown) [Compound 135] | > 4.70 | > 6.60 |
| CC(C)N1C[C@H]([C@H](c2ccccc2)n2ccc(C#N)n2)n2ncc(=O)c(O)c2C1=O [Compound 127-A] | > 4.70 | > 6.60 |
| CN1C[C@H]([C@H](c2ccccc2)c2cccc(OC3CC3)c2)n2ncc(=O)c(O)c2C1=O [Compound 105-B] | > 4.70 | > 6.60 |
| C[C@H](N1C[C@H](C2c3ccccc3CCc3ccccc32)n2ncc(=O)c(O)c2C1=O)C(F)(F)F [Compound 33-A] | > 4.70 | > 6.60 |
| CCN1CC(C(c2cccc(F)c2)c2cccc(F)c2)n2ncc(=O)c(O)c2C1=O (stereo not shown) [Compound 21] | > 4.70 | > 6.60 |
| CCOc1c2n(ncc1=O)[C@@H](C(c1cccc(F)c1)c1cccc(F)c1)CN(CC)C2=O [Compound 85-A] | 4.00 to 4.70 | ≤ 6.00 |
| CN1CC(C(c2ccccc2)c2cccc(C#N)c2)n2ncc(=O)c(O)c2C1=O (stereo not shown) [Compound 100] | > 4.70 | > 6.60 |
| CC(C)N1C[C@H](C2c3cccc(F)c3CCc3c(F)cccc32)n2ncc(=O)c(O)c2C1=O [Compound 51-A] | > 4.70 | > 6.60 |
| CN1CC(C(c2ccccc2)c2cccc(F)c2)n2ncc(=O)c(O)c2C1=O (stereo not shown) [Compound 23] | > 4.70 | > 6.60 |
| CC#Cc1ccn([C@H](c2ccccc2)[C@H]2CN(C)C(=O)c3c(O)c(=O)cnn32)n1 [Compound 115-C] | > 4.70 | > 6.60 |
| CN1C[C@H](C2c3ccc(F)cc3CCc3c(F)cccc32)n2ncc(=O)c(O)c2C1=O (stereo partly shown) [Compound 81-A] | > 4.70 | > 6.60 |
| CCN1C[C@H](C(c2cccc(F)c2)c2cccc(F)c2)n2ncc(=O)c(OCOC(=O)[C@@H](N)C(C)C)c2C1=O [Compound 95-A] | > 4.70 | > 6.60 |
| CC(C)N1C[C@@H](C2c3ccccc3CCc3ccccc32)n2ncc(=O)c(O)c2C1=O [Compound 17-B] | > 4.70 | > 6.60 |
| CN1CC(C(c2ccc(F)cc2)c2ccc(F)cc2)n2ncc(=O)c(O)c2C1=O (stereo not shown) [Compound 38] | > 4.70 | > 6.60 |
| O=C1c2c(O)c(=O)cnn2[C@H](C2c3ccccc3CCc3ccccc32)CN1Cc1ccccc1 [Compound 13-B] | > 4.70 | 6.00 to 6.60 |
| C#Cc1ccn(C(c2ccccc2)C2CN(C)C(=O)c3c(O)c(=O)cnn32)n1 (stereo not shown) [Compound 109] | > 4.70 | > 6.60 |

| SMILES | pEC50 [1] | pIC50 [2] |
| --- | --- | --- |
| CCN1C[C@H](C(c2ccccc2)c2cccc(Cl)c2)n2ncc(=O)c(OC(=O)c3cccnc3)c2C1=O (stereo partly shown) [Compound 79-A] | > 4.70 | > 6.60 |
| CN1C[C@@H](C2c3ccccc3CCc3ccccc32)n2ncc(=O)c(O)c2C1=O [Compound 7-B] | > 4.70 | > 6.60 |
| CN1CC(C(c2ccccc2)c2cccc(OC3CC3)c2)n2ncc(=O)c(O)c2C1=O (stereo not shown) [Compound 105] | 4.00 to 4.70 | > 6.60 |
| CN1CC(C(c2ccccc2)c2cccc(Cc3cnn(C)c3)c2)n2ncc(=O)c(O)c2C1=O (stereo not shown) [Compound 104] | > 4.70 | > 6.60 |
| CN1CC(C(c2ccccc2)c2ccc(Cl)cc2)n2ncc(=O)c(O)c2C1=O (stereo not shown) [Compound 32] | > 4.70 | > 6.60 |
| CN1C[C@@H](C2c3cc(F)ccc3CCc3ccc(F)cc32)n2ncc(=O)c(O)c2C1=O [Compound 45-B] | 4.00 to 4.70 | > 6.60 |
| C#Cc1cn(C(c2ccccc2)C2CN(C)C(=O)c3c(O)c(=O)cnn32)cn1 (stereo not shown) [Compound 116] | > 4.70 | > 6.60 |
| CC(C)N1C[C@@H]([C@@H](c2ccccc2)n2ccc(C#N)n2)n2ncc(=O)c(O)c2C1=O [Compound 127-D] | > 4.70 | 6.00 to 6.60 |
| CC(C)C(=O)Oc1c2n(ncc1=O)[C@@H](C1c3ccccc3CCc3ccccc31)CN(C)C2=O [Compound 65-A] | > 4.70 | > 6.60 |
| CC(C)N1CC(C2c3cccc(F)c3CCc3c(F)cccc32)n2ncc(=O)c(O)c2C1=O (stereo not shown) [Compound 51] | > 4.70 | > 6.60 |
| CC(C)N1CC(C(c2cccc(Cl)c2)c2cccc(Cl)c2)n2ncc(=O)c(O)c2C1=O (stereo not shown) [Compound 44] |  | > 6.60 |
| Cc1ccccc1CC1CN(C)C(=O)c2c(O)c(=O)cnn21 (stereo not shown) [Compound 4] |  | > 6.60 |
| CC(C)N1C[C@@H](C(c2ccccc2)c2cccc(Cl)c2)n2ncc(=O)c(O)c2C1=O (single isomer, unassigned) [Compound 82-B] |  | 6.00 to 6.60 |
| CN1CC(Cc2ccccc2)n2ncc(=O)c(O)c2C1=O (stereo not shown) [Compound 2] |  | > 6.60 |
| CCC(CC)N1CC(C(c2ccccc2)c2ccccc2)n2ncc(=O)c(O)c2C1=O (stereo not shown) [Compound 43] |  | > 6.60 |
| CCN1C[C@H](C(c2ccccc2)c2cccc(Cl)c2)n2ncc(=O)c(O)c2C1=O (stereo partly shown) [Compound 12-C] |  | > 6.60 |
| [2H]c1c([2H])c([2H])c(C(c2c([2H])c([2H])c([2H])c([2H])c2[2H])[C@H]2CN(C(C)C)C(=O)c3c(OC(=O)C(C)C)c(=O)cnn32)c([2H])c1[2H] [Compound 130] | > 4.70 |  |
| CN1CC(CCc2ccccc2)n2ncc(=O)c(O)c2C1=O (stereo not shown) [Compound 3] |  | > 6.60 |
| CCN1C[C@@H](C2c3ccccc3CCc3ccccc32)n2ncc(=O)c(O)c2C1=O [Compound 14-B] |  | > 6.60 |
| CC(C)N1CC(=C(c2ccccc2)c2ccccc2)n2ncc(=O)c(O)c2C1=O [Compound 11] |  | > 6.60 |
| CC(C)N1C[C@@H](C(c2cccc(F)c2)c2cccc(F)c2)n2ncc(=O)c(O)c2C1=O [Compound 41-B] |  | 6.00 to 6.60 |
